In PMC11859928, “Design, Synthesis, and Antiproliferative Activity of Novel Indole/1,2,4-Triazole Hybrids as Tubulin Polymerization Inhibitors” (Pharmaceuticals, 2025):

Legend:
Experiment in all cases: NCI one-dose assay
Format in all cases: cell-based
HT29 = details: Homo sapiens, HT-29, HT29, Colon cancer, read-out: Cell growth inhibition %
OVCAR-8 = details: Homo sapiens, OVCAR-8, Ovarian cancer, read-out: Cell growth inhibition %
NCI/ADR-RES = details: Homo sapiens, Ovarian cancer, read-out: Cell growth inhibition %
HCT-116 = details: Homo sapiens, HCT-116, Colon cancer, read-out: Cell growth inhibition %
SK-MEL-2 = details: Homo sapiens, SK-MEL-2, Melanoma, read-out: Cell growth inhibition %
MALME-3M = details: Homo sapiens, Melanoma, read-out: Cell growth inhibition %
CCRF-CEM = details: Homo sapiens, Leukemia, read-out: Cell growth inhibition %
T-47D = details: Homo sapiens, T47D, Breast cancer, read-out: Cell growth inhibition %
MDA-MB-468 = details: Homo sapiens, MDA-MB-468, Breast cancer, read-out: Cell growth inhibition %
UACC-257 = details: Homo sapiens, UACC-257, Melanoma, read-out: Cell growth inhibition %
SF-539 = details: Homo sapiens, SF-539, CNS cancer, read-out: Cell growth inhibition %
UACC-62 = details: Homo sapiens, UACC-62, Melanoma, read-out: Cell growth inhibition %
HCT-15 = details: Homo sapiens, HCT-15, Colon cancer, read-out: Cell growth inhibition %
K-562 = details: Homo sapiens, K562, K-562, Leukemia, read-out: Cell growth inhibition %
OVCAR-5 = details: Homo sapiens, OVCAR-5, Ovarian cancer, read-out: Cell growth inhibition %
CAKI-1 = details: Homo sapiens, CAKI-1, Renal cancer, read-out: Cell growth inhibition %
SR = details: Homo sapiens, Leukemia, read-out: Cell growth inhibition %
SW-620 = details: Homo sapiens, SW-620, Colon cancer, read-out: Cell growth inhibition %
KM12 = details: Homo sapiens, KM12, Colon cancer, read-out: Cell growth inhibition %
OVCAR-4 = details: Homo sapiens, OVCAR-4, Ovarian cancer, read-out: Cell growth inhibition %
SK-OV-3 = details: Homo sapiens, SK-OV-3, Ovarian cancer, read-out: Cell growth inhibition %
HS 578 T = details: Homo sapiens, Breast cancer, read-out: Cell growth inhibition %
SNB-19 = details: Homo sapiens, SNB-19, CNS cancer, read-out: Cell growth inhibition %
HOP-62 = details: Homo sapiens, HOP-62, Non-small cell lung cancer, read-out: Cell growth inhibition %
SN12C = details: Homo sapiens, Renal cancer, read-out: Cell growth inhibition %
TK-10 = details: Homo sapiens, TK-10, Renal cancer, read-out: Cell growth inhibition %
NCI-H23 = details: Homo sapiens, NCI-H23, Non-small cell lung cancer, read-out: Cell growth inhibition %
MDA-MB-231/ATCC = details: Homo sapiens, Breast cancer, read-out: Cell growth inhibition %
HCC-2998 = details: Homo sapiens, HCC-2998, Colon cancer, read-out: Cell growth inhibition %
BT-549 = details: Homo sapiens, BT-549, Breast cancer, read-out: Cell growth inhibition %
DU-145 = details: Homo sapiens, DU-145, Prostate cancer, read-out: Cell growth inhibition %
SNB-75 = details: Homo sapiens, SNB-75, CNS cancer, read-out: Cell growth inhibition %
IGROV1 = details: Homo sapiens, IGROV-1, IGROV1, Ovarian cancer, read-out: Cell growth inhibition %
MDA-MB-435 = details: Homo sapiens, MDA-MB-435, Melanoma, read-out: Cell growth inhibition %
SK-MEL-5 = details: Homo sapiens, SK-MEL-5, Melanoma, read-out: Cell growth inhibition %
MOLT-4 = details: Homo sapiens, MOLT-4, Leukemia, read-out: Cell growth inhibition %

O/N=C(\CSc1nnc(-c2c[nH]c3ccccc23)n1-c1ccccc1)c1ccc(Cl)cc1 [Compound 7j, (Z)-2-((5-(1H-Indol-3-yl)-4-phenyl-4H-1,2,4-triazol-3-yl)thio)-1-(4-chlorophenyl) Ethanone Oxime]
inhibition at 10 µM (HT29): 95.5% | inhibition at 10 µM (OVCAR-8): 93.6% | inhibition at 10 µM (NCI/ADR-RES): 170% | inhibition at 10 µM (HCT-116): 99.3% | inhibition at 10 µM (SK-MEL-2): 79.9% | inhibition at 10 µM (MALME-3M): 88.9% | inhibition at 10 µM (CCRF-CEM): 105% | inhibition at 10 µM (T-47D): 96.1% | inhibition at 10 µM (MDA-MB-468): 185% | inhibition at 10 µM (UACC-257): 55.7% | inhibition at 10 µM (SF-539): 70.5% | inhibition at 10 µM (UACC-62): 143% | inhibition at 10 µM (HCT-15): 148% | inhibition at 10 µM (K-562): 93.1% | inhibition at 10 µM (OVCAR-5): 143% | inhibition at 10 µM (CAKI-1): 111% | inhibition at 10 µM (SR): 87.2% | inhibition at 10 µM (SW-620): 137% | inhibition at 10 µM (KM12): 78.6% | inhibition at 10 µM (OVCAR-4): 181% | inhibition at 10 µM (SK-OV-3): 102% | inhibition at 10 µM (HS 578 T): 132% | inhibition at 10 µM (SNB-19): 82.6% | inhibition at 10 µM (HOP-62): 164% | inhibition at 10 µM (SN12C): 116% | inhibition at 10 µM (TK-10): 123% | inhibition at 10 µM (NCI-H23): 52.7% | inhibition at 10 µM (MDA-MB-231/ATCC): 155% | inhibition at 10 µM (HCC-2998): 83% | inhibition at 10 µM (BT-549): 167% | inhibition at 10 µM (DU-145): 131% | inhibition at 10 µM (SNB-75): 52% | inhibition at 10 µM (IGROV1): 134% | inhibition at 10 µM (MDA-MB-435): 200% | inhibition at 10 µM (SK-MEL-5): 78.8% | inhibition at 10 µM (MOLT-4): 107%
